Source: patent US11992471B2, “Reelin/VEGF-C production/activation promoter and skin external composition using the same” (AMOREPACIFIC CORPORATION, priority 2021, dated 2024)

Legend:
Format in all cases: cell-based
[1] = tested on: Human dermal lymphatic endothelial cells (HDLEC); assay: Cytotoxicity analysis (WST-8 cell viability); conditions: within a concentration range of 200 ppm, cultured 24 hours and 72 hours, FIG. 1
Experimental: Human dermal lymphatic endothelial cells (HDLEC, PromoCell, Germany) were newly cultured in 96 well dishes for one day and then treated with a compound represented by Chemical Formula E-1 (Biogenics Company) at each concentration of 0 ppm ( ? ) to 200 ppm ( ? ). The cells were cultured for 24 hours and 72 hours, and then measured with respect to absorbance at 450 nm by using a QuantiMax WST-8 Cell viability assay kit to check cell viability, and the results are shown in FIG. 1.

[2] = tested on: reelin; assay: Reelin cytokine analysis (human reelin ELISA); conditions: HDLEC, 1 ppm and 10 ppm, 48 hours, compared with cells with no treatment (100%), FIG. 2
Experimental: (§1) After culturing human dermal lymphatic endothelial cells in 6 well plates for 24 hours, while the cells with no treatment (N.T) were used as a reference (100%), the cells were treated with the compound represented by Chemical Formula E-1 at each concentration of 1 ppm and 10 ppm and cultured for 48 hours and then measured with respect to production and activity of reelin through a reelin cytokine analysis by using human reelin ELISA Kit (Mybiosource, U.S.A.) according to a manual, and the results are shown in FIG. 2.

[3] = tested on: VEGF-C; assay: VEGF-C cytokine analysis (VEGFC human ELISA); conditions: HDLEC, 1 ppm and 10 ppm, 48 hours, compared with cells with no treatment (100%), FIG. 3
Experimental: as §1, with “VEGF-C” for “reelin”, “using a VEGFC” for “using”, “human” for “human reelin”, “(ThermoFisher,” for “(Mybiosource,”, “3.” for “2.”

For `NCCS(=O)(=O)O` [Chemical Formula E-1], the “cytotoxicity (cell viability)” value [1] was “no cytotoxicity”, the “production and activity of reelin” value [2] was “further improve production and activity of reelin” and the “production and activity of VEGF-C” value [3] was “further improve production and activity of VEGF-C”.
